# Measured values taken from PMC7155171, “Probing the Open Global Health Chemical Diversity Library for Multistage-Active Starting Points for Next-Generation Antimalarials” (ACS Infectious Diseases, 2020).
# Read-outs that look alike come from different tables or passages of the source.
# Experiments:
# [1] = tested on: HepG2-A16-CD81 hepatocytes; assay: cells; design: Uninfected hepatocyte viability, CellTiter-Glo luminescence; conditions: sheet CDD Export 1;, cytotoxicity primary screen, read-out: Table S5. Liver stage reconfirmation data / HepG2 Cytotoxicity primary screen (2uM): % Inhibition
# Protocol: For the screen, 5 μL of HepG2-A16-CD81 hepatocytes containing 3 × 10^3 cells was seeded into 1536-well plates, which had been prespotted with 10 nL of library compound (2 μM final assay concentration (Figure 1)) and incubated overnight. For PbLuc infected plates, approximately 750 purified sporozoites in 5 μL of screening media were added to each well and incubated for 48 h before measuring luciferase activity. Compounds were tested for toxicity in parallel (see Methods) by measuring uninfected hepatocyte viability using CellTiter-Glo. […] This hit rate was slightly lower than expected for an agnostic library, which prompted us to rescreen the entire library at 10 μM. The PbLuc and cytotoxicity assay plates for this second replicate would be stamped in-house with 50 nL of library compound per well, using the same compound plates as the sexual stage screen described below. All the assay parameters were kept similar, except the change in concentration and shortening the time the compounds spent in each well prior to infection. […] All potential false positive effectors from the CellTiter-Glo assay were filtered from subsequent studies (Table S1). Naturally, there were more primary hits from the 10 μM than the 2 μM screen due to the higher testing concentration. For reconfirmation, we sourced all the hits that inhibited PbLuc at >70% and mean HepG2 at <50% in the 2 μM screen or PbLuc at >60% in both 2 and 10 μM screens and mean HepG2 at <50%. The resulting compounds were acquired as DMSO stocks and retested in the dose response (50–2.82 × 10^–4 μM or 25–141.13 × 10^–6 μM) against PbLuc and uninfected hepatocytes (Table S5). […] The majority of these compounds were weak inhibitors, although 18 submicromolar hits were found (Table S5).
# [2] = tested on: P. falciparum (NF54) stage V gametocytes; assay: Stage V gametocyte viability assay (MitoTracker Red CMXRos high content imaging); format: cell-based, Plasmodium falciparum; conditions: Plasmodium falciparum, NF54, 72 h
# [3] = tested on: P. falciparum Dd2 (PfLuc) line expressing firefly luciferase, asexual blood stage; assay: microbe, parasite or virus in culture; format: cell-based, Plasmodium falciparum; conditions: Plasmodium falciparum
# P. falciparum Dd2 = assay: SYBR green I asexual blood stage proliferation assay (96 h); format: cell-based, Plasmodium falciparum; conditions: Plasmodium falciparum, DD2, 11-pt dose response, 96hr
# [4] = read-out: Stg V Gam dose response IC50 (µM) (n=3), 10-point dose response, n=3, 72 h
# [5] = DD2, read-out: CDD P. falciparum Luciferase ABS 11-pt Reconfirmation Dose Response (48hr): IC50 (μM), 11-pt dose response, 48hr
# [6] = DD2, 8-pt dose response, 96hr, read-out: CDD P. falciparum Luciferase ABS 8-pt Reconfirmation Dose Response (96hr): IC50
# [7] = DD2, 11-pt dose response, 48hr, read-out: CDD P. falciparum Luciferase ABS 11-pt Reconfirmation Dose Response (48hr): Maximum inhibition (%)
# [8] = DD2, 11-pt dose response, 96hr, read-out: CDD P. falciparum Luciferase ABS 11-pt Reconfirmation Dose Response (96hr): IC50
# [9] = DD2, 11-pt dose response, 96hr, read-out: CDD P. falciparum Luciferase ABS 11-pt Reconfirmation Dose Response (96hr): Maximum inhibition (%)
# [10] = Sybr Green I, read-out: CDD P. falciparum Sybr Green I ABS 11-pt Reconfirmation Dose Response (96hr): IC50
# [11] = DD2, 8-pt dose response, 96hr, read-out: CDD P. falciparum Luciferase ABS 8-pt Reconfirmation Dose Response (96hr): Maximum inhibition (%)
# [12] = Sybr Green I, read-out: CDD P. falciparum Sybr Green I ABS 11-pt Reconfirmation Dose Response (96hr): Maximum inhibition (%)
smiles,measurement,setting,value
O=S(=O)(c1ccc(Cl)s1)N1CCN(Cc2nc(-c3ccco3)cs2)CC1 [DDD01027755],inhibition at 2 µM,[1],12.1%
CC(C)(C)NC(=O)N1CCC(Oc2ccc(C(F)(F)F)cn2)CC1 [DDD01028321],inhibition at 2 µM,[1],-4.73%
COc1cccc(CN2CCc3nc(C(=O)NCC(C)C)sc3CC2)c1 [DDD01030710],inhibition at 2 µM,[1],-10.2%
"COCCCNC1N=C(n2nc(C)cc2C)Nc2sc3c(c21)CCCC3 (stereo not drawn) [DDD01037467, COCCCNC1N=C(NC2=C1C1=C(CCCC1)S2)N1N=C(C)C=C1C]",IC50,"[2]; read-out: GAM V IC50, stage V gametocytes, 72 h",0.34 µM
same,IC50,[2]; [4],0.344 µM
same,inhibition at 2 µM,[1],2.66%
CC(=O)Nc1ncc(S(=O)(=O)Nc2ccc3c(c2)OCCO3)s1 [DDD01037671],inhibition at 2 µM,[1],-2.36%
Cn1cncc1CN1CCCC1c1cncc(Oc2ccc(Cl)cc2)n1 (stereo not drawn) [DDD01059295],inhibition at 2 µM,[1],0.825%
Cc1ncc(CN2CCOC(c3ccc(-c4ccccc4F)cn3)C2)s1 (stereo not drawn) [DDD01059493],inhibition at 2 µM,[1],-6.23%
Cc1cc(-c2cnc(NCc3cccnc3)nc2C(C)(C)C)on1 [DDD01061148],inhibition at 2 µM,[1],-8.43%
COC1CCN(c2ccc(NC(=O)C3CC3)cc2C(F)(F)F)CC1 [DDD01061774],inhibition at 2 µM,[1],12.4%
N#Cc1c(Cl)nsc1NCc1cccnc1OCC(F)(F)F [DDD01067853],inhibition at 2 µM,[1],4.29%
CCNc1ccnc(CN2CCCC2C(=O)Nc2nccs2)c1 (stereo not drawn) [DDD01068941],IC50,[3]; [5],0.73 µM
same,IC50,[3]; [6],0.48 µM
same,Emax,[3]; [7],92.3%
same,IC50,[3]; [8],0.407 µM
same,Emax,[3]; [9],99.6%
same,IC50,P. falciparum Dd2; [10],1650 nM
same,inhibition at 2 µM,[1],1.3%
"Cc1cn2c(n1)C(CNCC1=Cc3ccccc3OC1)CCC2 (stereo not drawn) [DDD01073292, CC1=CN2CCCC(CNCC3=CC4=CC=CC=C4OC3)C2=N1]",IC50,"[3]; DD2, read-out: P. falciparum Luciferase ABS 11-pt Reconfirmation Dose Response (48hr): IC50, 11-pt dose response, 48hr",4.19 µM
same,IC50,"[3]; DD2, 8-pt dose response, 96hr, read-out: P. falciparum Luciferase ABS 8-pt Reconfirmation Dose Response (96hr): IC50",1.65 µM
same,Emax,"[3]; DD2, 8-pt dose response, 96hr, read-out: P. falciparum Luciferase ABS 8-pt Reconfirmation Dose Response (96hr): Maximum inhibition (%)",93%
same,IC50,"[3]; DD2, 11-pt dose response, 96hr, read-out: P. falciparum Luciferase ABS 11-pt Reconfirmation Dose Response (96hr): IC50",1.84 µM
same,Emax,"[3]; DD2, 11-pt dose response, 96hr, read-out: P. falciparum Luciferase ABS 11-pt Reconfirmation Dose Response (96hr): Maximum inhibition (%)",99.3%
same,IC50,[2]; [4],1.31 µM
same,inhibition at 2 µM,[2]; read-out: Stg V Gam primary screen: Inhibition % (2uM) (n=2),66%
same,IC50,P. falciparum Dd2; read-out: P. falciparum Sybr Green I ABS 11-pt Reconfirmation Dose Response (96hr): IC50,2320 nM
same,Emax,P. falciparum Dd2; read-out: P. falciparum Sybr Green I ABS 11-pt Reconfirmation Dose Response (96hr): Maximum inhibition (%),83.8%
same,inhibition at 2 µM,[1],-0.92%
COc1cccc(CNc2cc(C)nc(-c3ccncc3)n2)c1OC [DDD01073393],IC50,[3]; [5],4.09 µM
same,IC50,[3]; [6],0.56 µM
same,Emax,[3]; [11],94.5%
same,Emax,[3]; [7],80%
same,IC50,[3]; [8],0.0383 µM
same,Emax,[3]; [9],98.2%
same,IC50,P. falciparum Dd2; [10],589 nM
same,Emax,P. falciparum Dd2; [12],75.8%
same,inhibition at 2 µM,[1],-4.44%
COC(=O)c1sc(NCc2ccc(N3CCC(O)CC3)c(F)c2)nc1Cl [DDD01073922],inhibition at 2 µM,[1],5.85%
Cc1nc(C(=O)NC2CCN(CCOc3ccc(Br)cc3)CC2)cs1 [DDD01079205],inhibition at 2 µM,[1],17.6%
N#Cc1c(Cl)nsc1NCC1(c2ccccc2)CCC1 [DDD01079347],inhibition at 2 µM,[1],12%
O=C(CN1CCCC(c2ccn[nH]2)C1)Nc1nc2c(s1)CCCC2 (stereo not drawn) [DDD01079490],IC50,[3]; [5],0.452 µM
same,IC50,[3]; [6],0.28 µM
same,Emax,[3]; [11],89.3%
same,Emax,[3]; [7],82.4%
same,IC50,[3]; [8],0.266 µM
same,Emax,[3]; [9],97%
same,IC50,P. falciparum Dd2; [10],810 nM
same,Emax,P. falciparum Dd2; [12],69.6%
same,inhibition at 2 µM,[1],7.13%
CCc1ccc(-c2ncc3c(n2)N(C)CCN(CCN(C)C)C3=O)cc1 [DDD01235938],inhibition at 2 µM,[1],4.38%
